The results in this text go back to PMC9655618 (Cancers, 2022).

One assay has as its system Hs-578T cells. In words: MTT cell viability assay. Type of assay: cell-based, human. The settings on record: 72 h, 10%FBS growth media. The method, then:
(§1) Straightforward, the tetrazolium salt 3-(4,5-methyltiazol-2yl-)-2,5diphenyl-tetrazolium bromide (MTT) (Applichen, Darmstadt, Germany) was added to cells, incubated for 2–4 h at 37 °C, and lysed in 10% SDS.
For orientation: Tetrazolium dyes change colour on reduction, which living cells bring about.

The subject of another assay is MDA-MB-231 cells. In words: MTT cell viability assay. Type of assay: cell-based, human. The settings on record: 10%FBS growth media. The method, then: as §1
The test system of the next assay is Ishikawa cells. In words: MTT cell viability assay. Type of assay: cell-based, human. The settings on record: read-out: IC50 (μM) ISHIKAWA, 72 h, 10%FBS growth media. The method, then:
as §1

Another assay has as its system MCF-7 cells. In words: MTT cell viability assay. The class given is cell-based, human. The settings on record: 10%FBS growth media. The method, then:
as §1

In another assay the test system is SK-BR-3 cells. In words: MTT cell viability assay. The settings on record: 10%FBS growth media. Type of assay: cell-based, human. Here is the method:
as §1

The test system of another assay is MCF-10A cells. In words: MTT cell viability assay. The settings on record: 72 h, 10%FBS growth media. The class given is cell-based, human. The method, then: as §1
The test system of the next assay is MCF-7/BUS cells. The assay can be described thus: MTT cell viability assay. The settings on record: 72 h, 10%FBS growth media, MTT, read-out: IC50 (μM) MCF-7/BUS. Type of assay: cell-based, human. The method, then: as §1
For another assay, the system named is BT-549 cells. The assay can be described thus: MTT cell viability assay. The settings on record: 10%FBS growth media. Type of assay: cell-based, human. Here is the method:
as §1

For another assay, the system named is PBMC. The assay can be described thus: MTT cell viability assay. The class given is cell-based. The settings on record: Homo sapiens, 72 h, 10%FBS growth media. The method, then: as §1
In the next assay the test system is VERO cells. In words: MTT cell viability assay. The class given is cell-based, monkey. The settings on record: 72 h, 10%FBS growth media. The method, then: as §1
The next assay concerns T47D cells. In words: MTT cell viability assay. The settings on record: 72 h, 10%FBS growth media. Type of assay: cell-based, human. The method, then: (§2) Straightforward, the tetrazolium salt 3-(4,5-methyltiazol-2yl-)-2,5diphenyl-tetrazolium bromide (MTT) (Applichen, Darmstadt, Germany) was added to cells, incubated for 2–4 h at 37 °C, and lysed in 10% SDS. The mitochondrial metabolization of the tetrazolium salt was determined by the analysis of the optical density at 595 nm, measured with the iMark microplate Reader (Bio–Rad, Irvine, CA, USA).

The subject of assay [1] is ERα, pS2 and PR mRNA in MCF-7 cells. In words: Quantitative real-time PCR of ERα-regulated genes. Type of assay: cell-based, human. The settings on record: 3 h pretreatment, E2 10 nM 24 h; 32 5 µM, 35 10 µM, ICI 0.1 µM, 4-OHTAM 1 µM. The method, then:
(§3) For gene expression analysis, MCF-7 and Ishikawa cells were deprived of steroid hormones by using a 10DCC-FBS medium for five days. Then, 1,500,000 cells/dish were seeded in 5DCC-FBS, followed by treatment with test compounds. Total RNA was isolated by using TRItidy G™ (Panreac Applichem ITW Reagents, Darmstadt, Germany). The concentration and purity of RNA were determined with a NanoDrop 1000 spectrophotometer (Wilmington, NC, USA). Then, 1 µg of total RNA was reversed and amplified with the iScriptTM kit (Bio-Rad) following the manufacturer’s protocol. SYBR Green PCR Master mix (Applied Biosystems, Bedford, MA, USA) reagent and exon-specific primers for ERα were used for Real-time quantitative PCR (qPCR). Gene expression was analyzed with an Mx3005P qPCR System (Agilent, Santa Clara, CA, USA), and cycle threshold values were calculated using MxPro qPCR Software (Agilent, CA, USA). Target gene expression was normalized to the expression of the 18S housekeeping gene. Data were expressed as relative expression values according to the comparative CT method for qPCR [42].
For orientation: Quantitative PCR measures a nucleic acid by following its amplification.

Assay [2] deals with ERα, pS2 and PR mRNA in Ishikawa cells. The assay can be described thus: Quantitative real-time PCR of ERα-regulated genes. The settings on record: 3 h pretreatment, E2 10 nM 24 h. Type of assay: cell-based, human. The method, then: as §3
The test system of assay [3] is T47D estrogen-depleted cells. The assay can be described thus: E2-induced proliferation of estrogen-depleted cells (AUC of growth kinetics). Type of assay: cell-based. The settings on record: presence of E2 (0.1 nM), 10 days. The method, then: To monitor long-term growth, human ER+ BC (T47-D, MCF-7, MCF-7/BUS), ER+ endometrial (Ishiwaka, High Point, NC, USA), or non-malignant breast (MCF-10A) cells were seeded at 3000–6000 cells per well. […] When indicated, cells were estrogen-deprived in a 10DCC-FBS supplemented medium for one week. […] Cytotoxicity was monitored by using YOYO-1 (Invitrogen, Waltham, MA, USA). Cell proliferation and cytotoxicity were monitored by sequential real-time microphotographs in an IncuCyte HD real-time imaging system (Essen BioScience, Hertfordshire, UK) for 5–10 days. The area under the curve (AUC) was then analyzed to know both the kinetics and dose-effect relationships. […] Next, cells were treated with VEH (0.05% DMSO) or test compounds for 5–10 days. Spheroid size and cell cytotoxicity were recorded with the Incucyte SX5 Live-Cell Analysis Instrument (Sartorius AG, Göttingen, Germany). To calculate the spheroid growth area, confluence measurements were taken considering the largest brightfield object area (µm^2). Cytotoxicity was monitored by using YOYO-1 (Essen Bioscience, Hertfordshire, UK).

Assay [4] deals with ERα-mediated transcription (3xERE-luciferase), T47D-KBluc cells. In words: ER-dependent transcriptional activity, 3xERE-luciferase reporter in T47D-KBluc cells.
Assay [5] has as its system ER+ cancer cells (i.e., MCF-7, MCF-7/BUS, T47D and Ishikawa cells). The assay can be described thus: MTT cell viability, summary over ER+ cancer cells. The class given is cell-based. The settings on record: Homo sapiens, read-out: IC50, viability of ER+ cancer cells, E2-non-depleted cells, text summary of Table 1 over MCF-7, MCF-7/BUS. The method, then: as §2
In assay [6] the test system is STAT3 transcriptional activity in HEK293 cells. The assay can be described thus: IL6-induced STAT3 transcriptional activity, Renilla reporter HEK-293 cells. The settings on record: hIL6 10 ng/ml.

Read-outs that look alike come from different tables or passages of the source. Bounds are passed on as bounds.

In the case of `COc1cccc2c1C(=O)c1c(O)c3c(c(O)c1C2=O)C[C@@](O)(C(=O)CO)C[C@@H]3O[C@H]1C[C@H](N)[C@H](O)[C@H](C)O1` [DOXO, doxorubicin, reference compound], the IC50 stood at 0.37 ± 0.05 µM with Hs-578T cells (Homo sapiens, Hs-578T); 0.25 ± 0.07 µM in the assay on MDA-MB-231 cells (Homo sapiens, MDA-MB-231, 72 h); 0.09 ± 0.03 µM in the assay with Ishikawa cells (Homo sapiens, Ishikawa); 0.07 ± 0.01 µM in the assay on MCF-7 cells (Homo sapiens, MCF7, 72 h); 0.04 ± 0.01 µM with SK-BR-3 cells (Homo sapiens, SK-BR-3, 72 h); 0.09 ± 0.01 µM in the assay with MCF-10A cells (Homo sapiens, MCF-10A). The IC50 is 0.05 ± 0.02 µM with MCF-7/BUS cells (Homo sapiens, MCF7/BUS); 0.19 ± 0.04 µM in the assay with BT-549 cells (Homo sapiens, BT-549, 72 h); 1.47 ± 0.69 µM in the assay with PBMC; 2.62 ± 0.24 µM with VERO cells (Primates, Vero); 0.15 ± 0.02 µM in the assay on T47D cells (Homo sapiens, T47D).
Take `C[C@]12CC[C@@H]3c4ccc(O)cc4C[C@@H](CCCCCCCCC[S+]([O-])CCCC(F)(F)C(F)(F)F)[C@H]3[C@@H]1CC[C@@H]2O` (some centres unmarked) [ICI, ICI-182,780, reference compound]: the “effect on E2-induced mRNA expression” value in assay [1] was “blocked E2-induced mRNA levels of PR and pS2”; in assay [2] it was “blocked E2-induced mRNA levels of PR and pS2”. For the same molecule, the IC50 in the assay on Hs-578T cells was more than 25 µM; with MDA-MB-231 cells (72 h) it was more than 25 µM; in the assay with Ishikawa cells, more than 10 µM; in the assay on MCF-7 cells (72 h), 0.52 ± 0.16 µM; with SK-BR-3 cells (72 h), more than 50 µM; in the assay with MCF-10A cells it was more than 10 µM. Also, the IC50 is 0.0006 µM in the assay with MCF-7/BUS cells; more than 25 µM in the assay with BT-549 cells (72 h); 0.283 nM in assay [3]; more than 10 µM with VERO cells; 0.00019 µM in [4] (read-out: IC50 (µM) on E2-induced luciferase activity, dose-response, 3 h pretreatment, then E2 0.1 nM 16–24 h); 0.0002 ± 8e-05 µM in assay [4] (read-out: IC50 on E2-induced ER-dependent transcriptional activity, co-incubation with E2). Besides, in the assay with T47D cells, the IC50 was determined as 14.9 ± 5.19 µM. The “E/Emax (%) VEH” value in [4] (compounds 10 µM, 3 h pretreatment, then vehicle 16–24 h, relative to Emax of E2) was −9.15 ± 3.99%.
Regarding `COc1ccc(C2=CC(O)(c3ccc([N+](=O)[O-])cc3)N(Cc3ccccc3)C2=O)cc1` (centres unmarked) [compound 43, 1-benzyl-5-hydroxy-3-(4-methoxyphenyl)-5-(4-nitrophenyl)-1H-pyrrol-2(5H)-one], the IC50 is more than 10 µM with Hs-578T cells (Homo sapiens, Hs-578T); more than 10 µM in the assay with MDA-MB-231 cells (Homo sapiens, MDA-MB-231, 72 h); 3.47 ± 0.94 µM in the assay on Ishikawa cells (Homo sapiens, Ishikawa); 6.54 ± 0.41 µM in the assay on MCF-7 cells (Homo sapiens, MCF7, 72 h); 2.16 ± 0.05 µM in the assay on SK-BR-3 cells (Homo sapiens, SK-BR-3, 72 h); 2.85 ± 1.24 µM with MCF-7/BUS cells (Homo sapiens, MCF7/BUS). The IC50 in the assay on BT-549 cells (Homo sapiens, BT-549, 72 h) is 6.23 ± 3.48 µM; in assay [5] it was less than 10000 nM; with T47D cells (Homo sapiens, T47D), 8.57 ± 0.43 µM.
`COc1ccccc1C1=CC(O)(c2ccc([N+](=O)[O-])cc2)N(Cc2ccccc2)C1=O` (centres unmarked) [compound 49, 1-benzyl-5-hydroxy-3-(2-methoxyphenyl)-5-(4-nitrophenyl)-1H-pyrrol-2(5H)-one]: the IC50 is more than 10 µM with Hs-578T cells (Homo sapiens, Hs-578T); 7.94 ± 2.07 µM in the assay on MDA-MB-231 cells (Homo sapiens, MDA-MB-231, 72 h); 4.82 ± 1.84 µM in the assay on Ishikawa cells (Homo sapiens, Ishikawa); 3.47 ± 1.12 µM in the assay on MCF-7 cells (Homo sapiens, MCF7, 72 h); more than 10 µM in the assay with SK-BR-3 cells (Homo sapiens, SK-BR-3, 72 h); 0.31 ± 0.03 µM in the assay on MCF-10A cells (Homo sapiens, MCF-10A). The IC50 with MCF-7/BUS cells (Homo sapiens, MCF7/BUS) was 5 ± 1.79 µM; in the assay with BT-549 cells (Homo sapiens, BT-549, 72 h), more than 10 µM; in assay [5] it was less than 10000 nM; in the assay on T47D cells (Homo sapiens, T47D) it was more than 10 µM.
Regarding “hIL-6: pure agonist hIL6 (10 ng/mL) used to induce STAT3 transcriptional activity”, the “maximal luciferase activity or Emax” value in assay [6] is 10.08 ± 2.41 fold induction.
